The target in assay [1] is T1, A1 receptor in DDT1 cells (Mesocricetus auratus, UniProt A0A1U8BVR4).
T1 construct: endogenous in cells; host or cells: DDT1 cells (hamster vas deferens smooth muscle cell line): membranes in A1 and A3, whole cells in A4
T1 sequence (A0A1U8BVR4 1-326): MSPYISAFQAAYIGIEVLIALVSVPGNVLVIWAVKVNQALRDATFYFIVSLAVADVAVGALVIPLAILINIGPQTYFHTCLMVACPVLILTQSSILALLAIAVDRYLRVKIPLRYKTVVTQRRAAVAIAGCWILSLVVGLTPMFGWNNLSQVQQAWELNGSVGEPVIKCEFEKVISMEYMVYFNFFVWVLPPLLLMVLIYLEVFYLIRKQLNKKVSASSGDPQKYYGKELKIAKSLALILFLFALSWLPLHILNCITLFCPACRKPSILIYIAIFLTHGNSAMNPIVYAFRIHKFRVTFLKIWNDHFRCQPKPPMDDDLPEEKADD
Put plainly: cAMP assay (SPA) in DDT1 cells, forskolin-induced cAMP. Type of assay: cell-based, hamster. As to conditions: forskolin 5 μM; for Camp: rolipram 50 μM, 10 min 37° C., normalized to the full agonist CPA. The procedure: (§1) DDT cells (hamster vas deferens smooth muscle cell line) were grown as monolayers in petri dishes using Dulbecco's Modified Eagle's Medium (DMEM) containing […] amphotericin B, 100 U ml^−1 penicillin G, 0.1 mg ml^−1 streptomycin sulfate and 5% fetal bovine serum in a humidified atmosphere of 95% air and 5% CO2. Cells were subcultured twice weekly by dispersion in Hank's Balanced Salt Solution (HBSS) without the divalent cations and containing 1 mM EDTA. The cells were then seeded in growth medium at a density of 1.2×10^5 cells per plate and experiments were performed 4 days later at approximately one day preconfluence.
A scintillation proximity assay (SPA) using rabbit antibodies directed at cAMP using an added tracer of adenosine 3′,5′-cyclic phosphoric acid 2′-O-succinyl-3-[^125I]iodotyrosine methyl ester and fluoromicrospheres containing anti-rabbit specific antibodies as described by Amersham Pharmacia Biotech (Biotrak cellular communication assays). Briefly, DDT1 cells were cultured in clear bottomed 96 well microtiter plates with opaque wells at concentrations between 10^4 to 10^6 cells per well in 40 μl of HBSS at 37° C. (5% CO2 and 95% humidity). The partial or full A1 agonists (5 μl) of this invention were incubated at various concentrations with the DDT1 cells in the presence of rolipram (50 μM), and 5 μM forskolin for 10 min at 37° C. The cells were immediately lysed by treatment 5 μl of 10% dodecyltrimethylammonium bromide followed by shaking using microplate shaker. After incubation of the plate for 5 minutes, an immunoreagent solution (150 μl containing equal volumes of tracer, antiserum, and SPA fluorospheres) was added to each well followed by sealing the plate. After 15-20 h at 23° C., the amount of bound [^125I] cAMP to the fluoromicrospheres was determined by counting in a microtitre plate scintillation counter for 2 minutes. Comparison of counts with standard curves generated for cAMP using a similar protocol afforded the cAMP present after cell lysis.
Background: Cyclic AMP is a second messenger, typically raised through Gs and lowered through Gi signalling.

In assay [2] the target is T2, A1 receptor (Sus scrofa, UniProt I3LEN5).
T2 construct: from tissue; host or cells: pig striatum membranes
T2 sequence (I3LEN5 1-326): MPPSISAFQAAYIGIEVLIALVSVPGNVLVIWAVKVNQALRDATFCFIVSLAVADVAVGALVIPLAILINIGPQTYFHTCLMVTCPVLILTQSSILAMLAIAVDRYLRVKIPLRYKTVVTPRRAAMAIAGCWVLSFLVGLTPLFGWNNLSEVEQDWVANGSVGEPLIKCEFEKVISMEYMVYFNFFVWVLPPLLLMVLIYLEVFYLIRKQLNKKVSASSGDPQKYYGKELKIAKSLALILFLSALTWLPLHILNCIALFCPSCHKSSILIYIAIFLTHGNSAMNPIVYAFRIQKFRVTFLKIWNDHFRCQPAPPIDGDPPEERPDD
Put plainly: Competitive binding assay, pig striatum membranes, [3H]CPX. The following applies: pig striatal membranes, antagonist [3H]CPX 2 nM, 23 C, 2 h. The procedure:
(§2) Pig striatum were prepared by homogenation in 50 mM Tris buffer (5× volume of tissue mass pH=7.4). After centrifugation at 19,000 rpm for 25 minutes at 4° C., the supernatant was discarded, and the process was repeated twice. Compositions of this invention were assayed to determine their affinity for the A1 receptor in a pig striatum membrane prep or a DDT1 membrane prep. Briefly, 0.2 mg of pig striatal membranes or DDT1 cell membranes were treated with adenosine deaminase and 50 mM Tris buffer (pH=7.4) followed by mixing. To the pig membranes was added 2 μL of serially diluted DMSO stock solution of the compounds of this invention at concentrations ranging from 100 microM to 10 nM. The control received 2 microL of DMSO alone, then the antagonist [^3H] 8-cyclopentylxanthine (CPX) for pig striatum or the agonist [^3H] 2-chloro-6-cyclopentyladenosine (CCPA) for DDT1 membranes in Tris buffer (50 mM, pH of 7.4) was added to achieve a final concentration of 2 nM. After incubation at 23 C for 2 h, then the solutions were filtered using a membrane harvester using multiple washing of the membranes (3×). The filter disks were counted in scintillation cocktail affording the amount of displacement of tritiated CPX or by the competitive binding compositions of this invention. Greater than a 5 point curve was used to generate Ki's and the number of experiments is indicated in the column marked in Table 1, below: […]

The target of assay [3] is T3, A1 AdoR (Mesocricetus auratus, UniProt A0A1U8BVR4).
T3 construct: endogenous in cells; host or cells: DDT1 cells (hamster vas deferens smooth muscle cell line): membranes in A1 and A3, whole cells in A4
T3 sequence (A0A1U8BVR4 1-326): T1 sequence (A0A1U8BVR4 1-326)
Put plainly: [35S]GTPγS binding assay (A1-agonist stimulated), DDT1 membranes. The following applies: stimulated [35S]GTPγS binding normalized to the full agonist CPA. Type of assay: biochemical, hamster. The procedure: as §1
(§3) Attached cells were washed twice with HBSS (2×10 ml), scraped free of the plate with the aid of a rubber policeman in 5 ml of 50 mM Tris-HCl buffer pH 7.4 at 4° C. and the suspension homogenized for 10 s. The suspension was then centrifuged at 27,000×g for 10 min. The pellet was resuspended in homogenization buffer by vortexing and centrifuged as described above. The final pellet was resuspended in 1 vol of 50 mM Tris-HCl buffer pH 7.4 containing 5 mM MgCl2 for A1 AdoR assays. For the [^35S]GTPγS binding assay the final pellet was resuspended in 50 mM Tris-HCl pH 7.4 containing 5 mM MgCl2, 100 mM NaCl and 1 mM dithiothreitol. This membrane suspension was then placed in liquid nitrogen for 10 min, thawed and used for assays. The protein content was determined with a Bradford™ Assay Kit using bovine serum albumin as standard.
A1-agonist stimulated [^35S] GTPγS binding was determined by a modification of the method described by Giersckik et al. (1991) and Lorenzen et al. (1993). […] Nonspecific binding was determined by the addition of 10 μM GTPγS. […] Previous reports have shown that agonist stimulated [^35S]GTPγS binding was dependent on the presence of GDP (Gierschik et al., 1991; Lorenzen et al., 1993; Traynor & Nahorski, 1995). […] In saturation experiments, 0.5 nM [^35S]GTPγS was incubated with 0.5-1000 nM GTPγS. At the end of the incubation, each suspension was filtered and the retained radioactivity determined as described above.
For orientation: Binding of GTPγS marks nucleotide exchange on a G protein.

In assay [4] the target is T4, A1 receptor (Mesocricetus auratus, UniProt A0A1U8BVR4).
T4 construct: endogenous in cells; host or cells: DDT1 cells (hamster vas deferens smooth muscle cell line): membranes in A1 and A3, whole cells in A4
T4 sequence (A0A1U8BVR4 1-326): T1 sequence (A0A1U8BVR4 1-326)
Put plainly: Competitive binding assay, DDT1 cell membranes, [3H]CCPA. Also noted: species or system hamster. As to conditions: DDT1 membrane prep, agonist [3H]CCPA 2 nM, 23 C, 2 h. Here is the method:
as §1, §3, §2

Structures are written as SMILES.

For `OC[C@H]1O[C@@H](n2cnc3c(NC4CCCC4)ncnc32)[C@H](O)[C@@H]1O` [CPA, N-6-cyclopentyladenosine, reference compound], in assay [1], the “effect on forskolin induced cAMP generation” value is reported as “diminished the amount of forskolin induced cAMP generation back to basal levels” and the Camp came to 107%.
`CSC[C@H]1O[C@@H](n2cnc3c(N[C@@H]4CCOC4)ncnc32)[C@H](O)[C@@H]1O` [Compound 7, 2-{6-[((3R)oxolan-3-yl)amino]purin-9-yl}(4S,5S,2R,3R)-5-(methylthiomethyl)oxolane-3,4-diol] showed a Ki in assay [2] of 0.222 µM.
As to `CCSC[C@H]1O[C@@H](n2cnc3c(N[C@@H]4CCOC4)ncnc32)[C@H](O)[C@@H]1O` [Compound 8, 2-{6-[((3R)oxolan-3-yl)amino]purin-9-yl}(4S,5S,2R,3R)-5-[(Ethylthio)methyl]oxolane-3,4-diol], in assay [1], the Camp came out at 37%. Also, the “GTP[…]S” value in assay [3] amounted to 104%.
With `CC(C)SC[C@H]1O[C@@H](n2cnc3c(N[C@@H]4CCOC4)ncnc32)[C@H](O)[C@@H]1O` [Compound 10, 2-{6-[((3R)oxolan-3-yl)amino]purin-9-yl}(4S,5S,2R,3R)-5-[(Methylethylthio)methyl]oxolane-3,4-diol], the Ki in assay [2] was determined as 0.188 µM.
`O[C@@H]1[C@H](O)[C@@H](CSc2ccccc2)O[C@H]1n1cnc2c(N[C@@H]3CCOC3)ncnc21` [Compound 11, 2-{6-[((3R)oxolan-3-yl)amino]purin-9-yl}(4S,5S,2R,3R)-5-(phenylthiomethyl)oxolane-3,4-diol] gave a Ki in assay [2] of 0.044 µM.
As for `COc1ccc(SC[C@H]2O[C@@H](n3cnc4c(N[C@@H]5CCOC5)ncnc43)[C@H](O)[C@@H]2O)cc1` [Compound 12, 2-{6-[((3R)oxolan-3-yl)amino]purin-9-yl}(4S,5S,2R,3R)-5-[(4-Methoxyphenylthio)methyl]oxolane-3,4-diol], in assay [1], the Camp is recorded as −9%. Also, the Ki in assay [4] was 0.82 µM. For the same compound, the “GTP[…]S” value in assay [3] is 52%.
In the case of `O[C@@H]1[C@H](O)[C@@H](CSc2ccc(Cl)cc2)O[C@H]1n1cnc2c(N[C@@H]3CCOC3)ncnc21` [Compound 13, 2-{6-[((3R)oxolan-3-yl)amino]purin-9-yl}(4S,5S,2R,3R)-5-[(4-chlorophenylthio)methyl]oxolane-3,4-diol], the Camp in assay [1] worked out at 30%. The “GTP[…]S” value in assay [3] is given as 69%.
As to `O[C@@H]1[C@H](O)[C@@H](CSc2ccc(F)cc2)O[C@H]1n1cnc2c(N[C@@H]3CCOC3)ncnc21` [Compound 14, 2-{6-[((3R)oxolan-3-yl)amino]purin-9-yl}(4S,5S,2R,3R)-5-[(4-fluorophenylthio)methyl]oxolane-3,4-diol], the Camp in assay [1] is 47%. Further, the affinity in assay [4], expressed as Ki, was 0.363 µM. Besides, in assay [3], the “GTP[…]S” value was 61%.
The matching figures for `Cc1ccc(SC[C@H]2O[C@@H](n3cnc4c(N[C@@H]5CCOC5)ncnc43)[C@H](O)[C@@H]2O)cc1` [Compound 15, 2-{6-[((3R)oxolan-3-yl)amino]purin-9-yl}(4S,5S,2R,3R)-5-[(4-methylphenylthio)methyl]oxolane-3,4-diol]: 22%, 0.922 µM and 48%.
The like results for `O[C@@H]1[C@H](O)[C@@H](CSc2ccc(C(F)(F)F)cc2)O[C@H]1n1cnc2c(N[C@@H]3CCOC3)ncnc21` [Compound 16, 2-{6-[((3R)oxolan-3-yl)amino]purin-9-yl}(4S,5S,2R,3R)-5-[(4-(trifluoromethyl)phenylthio)methyl]oxolane-3,4-diol] were, in that order, 22%, 7.7 µM and 31%.
The like results for `COc1ccccc1SC[C@H]1O[C@@H](n2cnc3c(N[C@@H]4CCOC4)ncnc32)[C@H](O)[C@@H]1O` [Compound 17, 2-{6-[((3R)oxolan-3-yl)amino]purin-9-yl}(4S,5S,2R,3R)-5-[(2-Methoxyphenylthio)methyl]oxolane-3,4-diol] were, in that order, 18%, 0.947 µM and 52%.

As usually defined, the Ki is a dissociation constant, usually derived from enzyme kinetics or from competition with a known ligand.
